The subject of series [1] is Ramos cells. It is filed as cell-based, human. An excerpt: (§1) Ramos (CRL-1596; American Type Culture Collection [ATCC]) is a human cell line of GC centroblast-derived BCL that was isolated from a Burkitt’s lymphoma patient, and Daudi (CCL-213; ATCC) is another human BCL cell line of Burkitt’s type. The control human cell lines of K562 (CCL-243; ATCC) and THP-1 (TIB-202; ATCC) wre originated from myelogenous and monocytic leukemia patients, respectively. NIH3T3 (CRL-1658; ATCC) is a mouse cell line of fibroblasts. […] Cells were counted on a hemocytometer (Neubauer; Marienfeld) after staining their aliquot with an equal volume of 0.4% trypan blue solution. All of the cell culture media and their supplements were purchased from Gibco (Thermo Fisher Scientific).
Stock solutions of various peptides, whose syntheses were custom ordered from GenScript via Koma Biotech in Korea, were first prepared by dissolving the lyophilized powder in PBS. Then, their aliquots were serially diluted with PBS to reach the final concentrations required for the experiments. […] To chase the effect of peptide transfection on the cellular proliferation, cells were counted daily on a hemocytometer by staining their aliquot with an equal volume of 0.4% trypan blue solution and finally harvested to analyze the effects of transfected peptide on various molecular events such as protein localization, transcription factor binding, gene expression, and rRNA production. […]

Series [2] deals with Ramos, Daudi, K562 and THP-1 cells.
Description: (§2) For a 2-mL culture of cells in each well of a 6-well plate, 7 μL peptide solution in a concentration of 10 μg/μL in PBS was added directly to the culture media, which were RPMI-1640 supplemented with fetal bovine serum (10%), L-glutamine (1×), nonessential amino acids (1×), penicillin/streptomycin (1×), and 2-mercaptoethanol (50 μM), but not sodium pyruvate. The intrinsic cell membrane permeability of peptide with its N-terminally conjugated FAM fluorophore was checked by observing the peptide-treated cells in a confocal fluorescence microscope (Zeiss) after mounting the washed cells on a microscope slide with a cover glass. It was important that the treated cells be washed well, for example, five times with warm PBS-T (0.01% Tween 20) to remove any nonspecifically adsorbed FAM fluorophore-conjugated peptides. Various custom-ordered peptides with or without the conjugated FAM fluorophore to be used for this direct addition to the cells in culture media as well as for their intravenous injection to the xenografted nude mice as described below were prepared as mentioned above.
For series [3], the system named is Daudi cells. It is filed as cell-based, human. The conditions noted are these: control peptides added directly to culture media without sodium pyruvate (Figure 6B).
Source text: as §1

For series [4], the system named is Ramos cells. It is filed as cell-based, human. The conditions noted are these: control peptides added directly to culture media without sodium pyruvate (Figure 6A).
Source text: as §1

Series [5] deals with Ramos, Daudi, K562 and THP-1 cells. As to the kind of experiment: Intrinsic cell membrane permeability of FAM-conjugated peptides added directly to culture media (confocal fluorescence microscopy). The conditions noted are these: for intrinsic cell membrane permeability: FAM fluorophore-labeled peptides added directly to Ramos, Daudi, K562 and THP-1 cells in culture media, cells washed with PBS-T, confocal fluorescence (Figure 6); for cell membrane permeability: N-terminally FAM-conjugated peptide added directly to culture media, confocal fluorescence (Figure 5A).
Description: as §2

Where two headings read alike, the source gives them in different places. Where no end group is shown, it is not given here.

For the molecule `O=C([O-])CCN1C(=O)/C(=C/c2ccc(-c3ccc([N+](=O)[O-])cc3)o2)SC1=S.[K+]` [KYA1797K], the “saturation concentration for cell growth inhibition” value in series [1] (titration in Xfect transfection/treatment of Ramos cells, in the absence of any cell death (Figures 2D, 2E)) stood at 5.5 µg/mL.

As to “ADEAIT [negatively charged control peptide]”, the “intrinsic cell membrane permeability” value in series [2] is given as “no such intrinsic cell membrane permeability”. Also, the “proliferation of Crlz-1+ Daudi cells inhibited” value in series [3] was “not”. Besides, the “proliferation of Crlz-1+ Ramos cells inhibited” value in series [4] is “not”.

Consider AKRAIT [AKRAIT], for which, in series [5], the “intrinsic cell membrane permeability” value is “intrinsic cell membrane permeabilities”. In addition, the cell membrane permeability entry in series [5] (absence of sodium pyruvate) is “intrinsically membrane permeable”. Also, in series [1], the “death of transfected cells” value was “not observed”.

As for AVGAGT [AVGAGT], the “intrinsic cell membrane permeability” value in series [5] is reported as “intrinsic cell membrane permeabilities”. For the same molecule, the cell membrane permeability result in series [5] (absence of sodium pyruvate) and in series [5] (presence of sodium pyruvate) was “permeable through the membrane regardless of sodium pyruvate” in each case.

With TIARKA, the “intrinsic cell membrane permeability” value in series [2] was “intrinsic cell membrane permeabilities”. Moreover, the “proliferation of Crlz-1+ Daudi cells inhibited” value in series [3] is on record as “not”. In addition, in series [4], the “proliferation of Crlz-1+ Ramos cells inhibited” value is “not”.

The record behind these values is PMC11906403, “Anti-lymphoma peptide is inspired by mapping a sequence of four amino acids of KRAI motif as nuclear localization signal of Crlz-1” (Molecular Therapy Oncology, 2025).
